Consider 7 compounds from patent publication US20240208972A1, “LRRK2 INHIBITORS AND USES THEREOF” (NEURON23, INC., priority 2022, published 2024).

The target of data set [1] is T1, wt human LRRK2, catalytic site (Homo sapiens, UniProt Q5S007).
T1 construct: wt human LRRK2, catalytic site, catalytic site (ThermoFisher/USA); purchased ThermoFisher
Briefly: TR-FRET LanthaScreen Tb Kinase Activity Assay, LRRK2 kinase inhibition. The class given is biochemical. To be noted: 2 nM wt human LRRK2, 400 nM peptide, 38 μM ATP. On the procedure: The compounds disclosed herein were tested for their inhibitory effect on LRRK2 kinase according to the following procedures.
The protocol for basic TR-FRET LanthaScreen Tb Kinase Activity Assay inhibitor studies is as follows. LanthaScreen Kinase Activity Assays (ThermoFisher/USA) to evaluate inhibitors were performed by addition of 100 nL of test compound in the corresponding DMSO dilutions/5 L of kinase/fluorescein-ERM(LRRKtide) peptide mixture, Compound & kinase were pre-incubated for 15 minutes, then 5 μl of ATP into 384 well small volume plates. After incubation for 120 minutes at room temperature, the detection reagents containing Tb-anti-pLRRKtide antibody were added to monitor the phosphrylation level of peptide. Then, after 60 min minutes incubation at room temperature plates were read in Envision. Data analysis of emission ratios was according to the LanthaScreen Tb Kinase Activity Assay protocol.
Kinase and assay components were adjusted to final concentrations according to the kit protocol. For LRRK2: 2 nM wt human LRRK2, catalytic site, catalytic site (ThermoFisher/USA), 400 nM peptide, 38 μM ATP in 1× Kinase Buffer A.
Basic protocol for TR-FRET LanthaScreen Tb Kinase Activity Assay inhibitor studies involved two steps: Enzymatic step: Addition of 100 nl of test compound in corresponding DMSO dilutions, 5 μl of kinase/substrate mixture, 5 μl of ATP into 384 well small volume plates. Incubation for 120 minutes at room temperature.
Detection step: Addition of 10 μl EDTA & antibody, read plate after 60 minutes. Data analysis of emission ratios according to KinEASE assay protocol.
Kinase and assay components were adjusted to final concentrations according to the kit protocol.

For data set [2], the system named is Caco-2 cells. In words: Caco-2 bidirectional permeability. To be noted: for Caco-2 A2B (10^−6 cm/s): A to B; for Caco-2 A2B (10^−6 cm/s) / Caco-2 B2A (10^−6 cm/s): HBSS pH 7.4, 2 hours; for Caco-2 B2A (10^−6 cm/s): B to A; for Caco-2 ER: Efflux Ratio=Papp (BA)/Papp (AB). The format is in vitro ADME. On the procedure:
The compounds disclosed herein were tested in vitro on CaCo2 cell penetration according to the following procedures.
Test compounds were prepared in dimethyl sulfoxide (DMSO).
Caco-2 cells purchased from ATCC were seeded onto […] (PET) in 96-well Corning Insert plates at 1×10^5 cells/cm^2. The media were refreshed every 4 to 5 days until the 21st to 28th day for confluent cell monolayer formation.
Experiments were run in duplicate using a HBSS transport buffer containing 10 mM HEPES at pH 7.4. The test article TEST COMPOUND was tested bi-directionally at […] concentrations, the control compound digoxin was tested bi-directionally at 10 μM, and nadolol and metoprolol were tested at 2.0 μM in the A to B direction. Final DMSO concentrations were adjusted to less than 1%. The plates were incubated for 2 hours in a CO2 incubator at 37±1° C. with 5% CO2 at saturated humidity without shaking. Following incubation, samples were mixed with acetonitrile containing internal standard and centrifuged at 3200×g for 10 minutes. Then 200 μL of supernatant was taken from all samples. For TEST COMPOUND and digoxin, the supernatant was diluted with 200 μL of ultra-pure water and for nadolol and metoprolol, the supernatant was diluted with 600 μL of ultra-pure water. All samples were analyzed by LC-MS/MS. Concentrations of TEST COMPOUND and control compounds were determined in starting solutions, donor well solutions, and receiver well solutions using peak area ratios (PAR) of analyte to internal standard. After the transport assay, a lucifer yellow rejection assay was run to determine the Caco-2 cell monolayer integrity.
The apparent permeability (Papp), the % recovery and the efflux ratio were calculated as follows: • 1. Papp=(dCr/dt)×Vr/(A×C0) • 2. % Recovery=100×[(Vr×Cr)+(Vd×Cd)]/(Vd×C0) • 3. Efflux Ratio=Papp (BA)/Papp (AB) • Where: • dCr/dt is the slope of the cumulative concentration in the receiver compartment versus time (mM/s). • Vr and Vd is the volume in the receiver and donor compartments (0.075 mL on the apical side, 0.25 mL on the basolateral side), respectively. • A is the surface area of the cell monolayer (0.0804 cm^2). • C0 is the measured donor concentrations (μM) at the beginning of the experiment. • Cd and Cr are the final measured concentrations in the donor and receiver compartments, respectively.
The cell monolayer tight junction integrity assay was conducted after completion of the transport assay by adding Lucifer Yellow (LY) to the apical wells at 100 μM and incubating the cells for 30 minutes. Following incubation, tight junction integrity was assessed from LY concentrations in the basolateral compartment (receiver well) and the apical compartment (donor well) using fluorescence detection as follows: […]

Data set [3] is described as follows: Human liver microsomal clearance (hLM Cl). The class given is in vitro ADME. The note with it: cells marked *.
Data set [4] can be described thus: Human hepatocyte stability, in vitro h-Hept CLpredict. The format is in vitro ADME. The note with it: cryopreserved hepatocytes, predicted hepatic clearance, cells without asterisk, read-out: hHep Cl. On the procedure:
The compounds disclosed herein were tested in vitro on human hepatocyte for in vitro h-Hept CLpredict according to the following procedures. • 1. Compound sock solutions were prepared by dissolving test compound and positive control in dimethyl sulfoxide (DMSO) at a concentration of 10 mM. Stock solutions were then diluted to 100 μM solutions by combining 198 μL of 50% acetonitrile/50% water with 2 μL of the 10 mM stock stock in separate conical tubes. • 2. Cryopreserved hepatocytes were prepared as follows: Incubation medium (William's E Medium supplemented with GlutaMAX) and hepatocyte thawing medium were placed in a 37° C. water bath and allowed to warm for at least 15 minutes prior to use. Cryopreserved hepatocytes were removed from storage, ensuring that vials remained at cryogenic temperatures until thawed. Cells were thawed by placing the vials in a 37° C. water bath and gently shaking the vials for 2 minutes. After thawing was completed, vials were sprayed with 70% ethanol and transferred to a biosafety cabinet. Hepatocytes were transferred into 50 mL conical tube containing thawing medium using wide-bore pipette tips. Tubes were placed into a centrifuge and spun at 100 g for 10 minutes. Then thawing medium was aspirated and hepatocytes were resuspended in enough incubation medium to yield−1.5×10^6 cells/mL. Cells were counted using acridine orange and propidium iodide (AO/PI) staining, and the viable cell density was determined. Cells were diluted with incubation medium to a working cell density of 0.5×10^6 viable cells/mL. • 3. To determine hepatocyte stability, 198 μL of hepatocytes were transferred into each well of a 96-well non-coated plate. Plates were placed in an incubator to allow the hepatocytes to warm for 10 minutes. • 4. The reaction was started by transferring 2 μL of the 100 μM test compound or positive control solution into respective wells of the 96-well non-coated plates. Plates were returned to the incubator until 25 μL aliquots of well contents were sampled at time points of 0, 15, 30, 60, 90 and 120 minutes. The aliquots were then mixed with 6 volumes (150 μL) of acetonitrile containing internal standard, IS (100 nM alprazolam, 200 nM caffeine and 100 nM tolbutamide) to terminate the reaction and vortexed for 5 minutes. After centrifuging the samples for 45 minutes at 3,220 g, aliquots of 100 μL of the supernatant were taken and diluted with 100 μL of ultra-pure water. The mixture was used for LC/MS/MS analysis. All incubations were performed in duplicate.
All calculations were carried out using Microsoft Excel. Peak area ratios (PAR) were determined from extracted ion chromatograms. The in vitro half-life (t1/2) of parent compound was determined by regression analysis of the percent parent disappearance vs. time curve as follows:
The in vitro half-life (in vitro t1/2) was determined from the slope value:
Conversion of the in vitro t1/2 (in minutes) into the in vitro intrinsic clearance (in vitro CLint, in μL/min/1×10^6 cells) was done using the following equation (mean of duplicate determinations): […]
The scaled-up intrinsic clearance (CLint, mL/min/kg), predicted hepatic clearance (CLH, mL/min/kg) and hepatic extraction ratio (ER) were calculated using the following equations:
CLint=(0.693/t1/2)*(1/(hepatocyte concentration (0.5*10^6 cells/mL))*scaling factors (Table (A)
• CLHept-predict=(QH*Scaled-up CLint*fub)/(QH+Scaled-up CLint*fub) • ER=CLH/QH • Where: • V=incubation volume (0.2 mL) • N=number of hepatocytes per well (0.1*10^6 cells) • QH=hepatic blood flow (mL/min/kg) (Table (A)
• fub=fraction of unbound drug in plasma, assumed to be 1 • Values used for calculation of the predicted hepatic clearance parameters data processing rules are outlined in the following tables (A) (B)

T1 sequence (Q5S007 1879-2138 limits assumed): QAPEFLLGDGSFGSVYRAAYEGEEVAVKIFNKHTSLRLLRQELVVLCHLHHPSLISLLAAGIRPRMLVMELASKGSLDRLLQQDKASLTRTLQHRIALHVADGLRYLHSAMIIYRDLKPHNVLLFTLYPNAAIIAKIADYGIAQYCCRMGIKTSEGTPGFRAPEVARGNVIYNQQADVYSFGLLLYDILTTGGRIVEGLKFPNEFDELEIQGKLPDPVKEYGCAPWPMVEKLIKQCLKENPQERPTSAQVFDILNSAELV

In the case of `Cc1n[nH]c2c1N=C(c1c(F)cccc1F)Nc1c-2cc(N2CCN(C)[C@H](C(F)(F)F)C2)nc1C` (single isomer, unassigned) [Example 36], the IC50 in data set [1] is less than 2 nM. Also, in data set [2], the “Caco-2 A2B (10^−6 cm/s)” value is recorded as “H (H (High permeability)”: A2B (B2A)>5)”, the “Caco-2 B2A (10^−6 cm/s)” value is recorded as “H (H (High permeability)”: A2B (B2A)>5)” and the “Caco-2 ER” value was “N (N (Non-substrate)”: ER<2.5)”. Further, in data set [3], the “hLM Cl (mL/min/kg)” value is recorded as “I* (I (Intermediate C1)”: 6.3 mL/min/kg≤Hep Cl≤14.7 mL/min/kg)”.
In data set [1], `Cc1n[nH]c2c1N=C(c1c(F)cccc1F)Nc1c-2cc(N2CCC[C@@]3(CCOC3)C2)nc1C` (single isomer, unassigned) [Example 50] displayed a concentration for half-maximal inhibition (IC50) of less than 2 nM. In data set [2], the “Caco-2 A2B (10^−6 cm/s)” value was “H (H (High permeability)”: A2B (B2A)>5)”, the “Caco-2 B2A (10^−6 cm/s)” value was “H (H (High permeability)”: A2B (B2A)>5)” and the “Caco-2 ER” value is “N (N (Non-substrate)”: ER<2.5)”. The “hLM Cl (mL/min/kg)” value in data set [3] is “I* (I (Intermediate C1)”: 6.3 mL/min/kg≤Hep Cl≤14.7 mL/min/kg)”.
Take `Cc1n[nH]c2c1N=C(c1c(F)cccc1F)Nc1c-2cc(N2CCOCC2)nc1C(F)(F)F` [Example 4, 4-[8-(2,6-difluorophenyl)-5-methyl-11-(trifluoromethyl)-3,4,7,9,12-pentazatricyclo[8.4.0.02,6]tetradeca-1(10),2(6),4,7,11,13-hexaen-13-yl]morpholine]: in data set [1], the IC50 was in the range of 2 to 100 nM. Besides, in data set [2], the “Caco-2 A2B (10^−6 cm/s)” value is “M (M (Moderate permeability)”: 1≤A2B (B2A)≤5)”, the “Caco-2 B2A (10^−6 cm/s)” value is “L (L (Low permeability)”: A2B(B2A)<1)” and the “Caco-2 ER” value was “N (N (Non-substrate)”: ER<2.5)”. The “hLM Cl (mL/min/kg)” value in data set [3] is recorded as “I* (I (Intermediate C1)”: 6.3 mL/min/kg≤Hep Cl≤14.7 mL/min/kg)”.
`Cc1ccc(-c2ccc3c(c2)-c2[nH]nc(C)c2N=C(c2c(F)cccc2F)N3)cn1` [Example 53, 5-(2,6-difluorophenyl)-3-methyl-9-(6-methyl-3-pyridyl)-1,6-dihydropyrazolo[4,3-d][1,3]benzodiazepine] came in with an IC50 in data set [1] of less than 2 nM. For the same compound, in data set [2], the “Caco-2 A2B (10^−6 cm/s)” value is recorded as “H (H (High permeability)”: A2B (B2A)>5)”, the “Caco-2 B2A (10^−6 cm/s)” value was “H (H (High permeability)”: A2B (B2A)>5)” and the “Caco-2 ER” value is recorded as “N (N (Non-substrate)”: ER<2.5)”. For the same compound, the CLhep predicted at 1 µM in data set [4] is 6.3 to 14.7 mL/min/kg.
Compound `Cc1n[nH]c2c1N=C(c1c(F)cccc1F)Nc1cnc(N3CC4CC4C3)cc1-2` (centres unmarked) [Example 56, 13-(3-azabicyclo[3.1.0]hexan-3-yl)-8-(2,6-difluorophenyl)-5-methyl-3,4,7,9,12-pentazatricyclo[8.4.0.02,6]tetradeca-1(10),2(6),4,7,11,13-hexaene] gave an IC50 in data set [1] of less than 2 nM. Also, in data set [2], the “Caco-2 A2B (10^−6 cm/s)” value was “H (H (High permeability)”: A2B (B2A)>5)”, the “Caco-2 B2A (10^−6 cm/s)” value is reported as “H (H (High permeability)”: A2B (B2A)>5)” and the “Caco-2 ER” value is “N (N (Non-substrate)”: ER<2.5)”. In data set [4], the CLhep predicted at 1 µM was greater than 14.7 mL/min/kg.
In data set [1], `Cc1n[nH]c2c1N=C(c1c(F)cccc1F)Nc1cnc(-n3ccc(C#N)n3)cc1-2` [Example 57, 1-[8-(2,6-difluorophenyl)-5-methyl-3,4,7,9,12-pentazatricyclo [8.4.0.02,6]tetradeca-1(10),2(6),4,7,11,13-hexaen-13-yl]pyrazole-3-carbonitrile] showed an IC50 of 2 to 100 nM. Further, in data set [2], the “Caco-2 A2B (10^−6 cm/s)” value is “H (H (High permeability)”: A2B (B2A)>5)”, the “Caco-2 B2A (10^−6 cm/s)” value is “H (H (High permeability)”: A2B (B2A)>5)” and the “Caco-2 ER” value is reported as “N (N (Non-substrate)”: ER<2.5)”. In addition, the CLhep predicted at 1 µM in data set [4] is 6.3 to 14.7 mL/min/kg.
In data set [1], `Cc1n[nH]c2c1N=C(c1c(F)cccc1F)Nc1cnc(-c3ccc(C(F)(F)F)nc3)cc1-2` [Example 58, 8-(2,6-difluorophenyl)-5-methyl-13-[6-(trifluoromethyl)-3-pyridyl]-3,4,7,9,12-pentazatricyclo[8.4.0.0^2,6]tetradeca-1(10),2(6),4,7,11,13-hexaene] came in with an IC50 of less than 2 nM. In addition, in data set [2], the “Caco-2 A2B (10^−6 cm/s)” value was “H (H (High permeability)”: A2B (B2A)>5)”, the “Caco-2 B2A (10^−6 cm/s)” value is reported as “H (H (High permeability)”: A2B (B2A)>5)” and the “Caco-2 ER” value is recorded as “N (N (Non-substrate)”: ER<2.5)”. The CLhep predicted at 1 µM in data set [4] is 6.3 to 14.7 mL/min/kg.
